Drawing on publication PMC6009890, “Rosmarinic acid prevents fibrillization and diminishes vibrational modes associated to β sheet in tau protein linked to Alzheimer’s disease” (Journal of Enzyme Inhibition and Medicinal Chemistry, 2017), this text covers inhibition and IC50 for five compounds.

Like-named read-outs stand apart in the source and are kept apart here.

Test [1] deals with T1, tau protein (4R) (Homo sapiens, UniProt P10636).
T1 construct: gene MAPT; fragment 4R (htau244–372), His-tagged
T1 sequence (P10636 561-689): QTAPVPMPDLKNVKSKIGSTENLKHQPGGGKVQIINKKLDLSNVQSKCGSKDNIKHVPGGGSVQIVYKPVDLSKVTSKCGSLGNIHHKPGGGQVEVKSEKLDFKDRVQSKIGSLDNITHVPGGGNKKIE
As to the kind of experiment: ThT fluorescence of heparin-induced aggregation of purified tau 4R, single concentration […]. In kind it is biochemical.

Test [2] concerns the target T1, tau protein (4R). As to the kind of experiment: ThT fluorescence of heparin-induced aggregation of purified tau 4R; supported by AFM and Raman. In kind it is biochemical.

As to `CC(C)c1cc2c(c(O)c1O)[C@@]13CCCC(C)(C)[C@@H]1C[C@@H]2OC3=O` [compound 1, carnosol], the inhibition (in general, the share of the control response that was lost under treatment) at 50 µM in test [1] (read-out: Inhibition (%)) worked out at 68%.

As for `CC(C)c1cc2c(c(O)c1O)[C@@]1(C(=O)O)CCCC(C)(C)[C@@H]1CC2` [compound 2, carnosic acid], the inhibition at 50 µM in test [1] turned out to be 65%.

Consider `CC(C)c1cc2c(c(O)c1O)[C@@]13CCCC(C)(C)[C@@H]1[C@H](OC3=O)[C@H]2O` [compound 3, rosmanol], for which, in test [1] (read-out: Inhibition (%)), the inhibition at 50 µM was 50%.

Take `CC(C)c1cc2c(c(O)c1O)[C@@]13CCCC(C)(C)[C@@H]1[C@H](O)[C@@H]2OC3=O` [compound 4, epiisorosmanol]: the inhibition at 50 µM in test [1] (read-out: Inhibition (%)) turned out to be 70%.

For `O=C(/C=C/c1ccc(O)c(O)c1)O[C@H](Cc1ccc(O)c(O)c1)C(=O)O` [compound 5, rosmarinic acid], the half-inhibitory concentration (IC50) (usually the point on the concentration scale where inhibition reaches its midpoint) in test [2] is 7.7 µM.
